Results published in US12077503B2, “Substituted cyclic amides and their use as herbicides” (FMC CORPORATION, priority 2015, dated 2024).

Tests used:
Type in all cases: in vivo
Kochia (Kochia scoparia) [1] = assay: Test A preemergence; settings: Bassia scoparia, pre-emergence, 240 h, 0 to 100 scale where 0 is no effect and 100 is complete control, read-out: Kochia plant response rating
How it was run: (§1)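 Visual injury, scored on a 0–100 scale relative to untreated controls, was recorded about 10 d after application. Treatments were a preemergence soil spray over planted seeds or a postemergence spray on plants at the one- to two-leaf stage, 2 to 10 cm tall, all in loam soil–sand blend in the greenhouse.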

[2] = test system: ryegrass, Italian (Italian ryegrass, Lolium multiflorum); assay: Test A preemergence; settings: Lolium multiflorum, pre-emergence, 240 h, 0 to 100 scale where 0 is no effect and 100 is complete control, read-out: Ryegrass, Italian plant response rating
How it was run: as §1

[3] = test system: barnyardgrass (Echinochloa crus-galli); assay: Test A preemergence; settings: Echinochloa crus-galli, pre-emergence, 240 h, 0 to 100 scale where 0 is no effect and 100 is complete control, read-out: Barnyardgrass plant response rating
How it was run: as §1

[4] = test system: giant foxtail (Setaria faberii); assay: Test A preemergence; settings: Setaria faberi, pre-emergence, 240 h, 0 to 100 scale where 0 is no effect and 100 is complete control, read-out: Foxtail, Giant plant response rating
How it was run: as §1

[5] = test system: pigweed (Amaranthus retroflexus); assay: Test A preemergence; settings: Amaranthus retroflexus, pre-emergence, 240 h, 0 to 100 scale where 0 is no effect and 100 is complete control, read-out: Pigweed plant response rating
[6] = test system: ragweed (common ragweed, Ambrosia elatior); assay: Test A preemergence; settings: Ambrosia artemisiifolia, pre-emergence, 240 h, 0 to 100 scale where 0 is no effect and 100 is complete control, read-out: Ragweed plant response rating
How it was run: as §1

[7] = test system: barnyardgrass (Echinochloa crus-galli); assay: Test B flooded paddy test; settings: Echinochloa crus-galli, 250 g ai/ha, Flood; 0 to 100 scale where 0 is no effect and 100 is complete control; read-out: Barnyardgrass plant response rating
How it was run: (§2)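 Response scored visually against untreated controls, 0 = no effect and 100 = complete control, 13–15 d after treatment in the greenhouse. Compounds added to paddy water held 3 cm above soil surface. Treatment given at 2-leaf stage.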

[8] = test system: ducksalad (Heteranthera limosa); assay: Test B flooded paddy test; settings: Heteranthera limosa, 250 g ai/ha, Flood; 0 to 100 scale where 0 is no effect and 100 is complete control; read-out: Ducksalad plant response rating
How it was run: as §2

rice (Oryra sativa) = assay: Test B flooded paddy test; settings: Oryza sativa, 250 g ai/ha, Flood; 0 to 100 scale where 0 is no effect and 100 is complete control; read-out: Rice plant response rating
How it was run: as §2

[9] = test system: sedge, umbrella (small-flower umbrella sedge, Cyperus difformis); assay: Test B flooded paddy test; settings: Cyperus difformis, 250 g ai/ha, Flood; 0 to 100 scale where 0 is no effect and 100 is complete control; read-out: Sedge, Umbrella plant response rating
How it was run: as §2

Kochia (Kochia scoparia) [10] = assay: Test A postemergence; settings: Bassia scoparia, post-emergence, 240 h
How it was run: as §1

corn (Zea mays) = assay: Test A postemergence; settings: Zea mays, post-emergence, 240 h
How it was run: as §1

[11] = test system: ryegrass, Italian (Italian ryegrass, Lolium multiflorum); assay: Test A postemergence; settings: Lolium multiflorum, post-emergence, 240 h
How it was run: as §1

[12] = test system: barnyardgrass (Echinochloa crus-galli); assay: Test A postemergence; settings: Echinochloa crus-galli, post-emergence, 240 h
How it was run: as §1

[13] = test system: wheat (Triticum aestivum); assay: Test A postemergence; settings: Triticum aestivum, post-emergence, 240 h
How it was run: as §1

[14] = test system: giant foxtail (Setaria faberii); assay: Test A postemergence; settings: Setaria faberi, post-emergence, 240 h
How it was run: as §1

[15] = test system: Galium (catchweed bedstraw, Galium aparine); assay: Test A postemergence; settings: Galium, post-emergence, 240 h
How it was run: as §1

[16] = test system: blackgrass (Alopecurus myosuroides); assay: Test A postemergence; settings: Alopecurus myosuroides, post-emergence, 240 h
How it was run: as §1

[17] = test system: pigweed (Amaranthus retroflexus); assay: Test A postemergence; settings: Amaranthus retroflexus, post-emergence, 240 h
How it was run: as §1

[18] = test system: ragweed (common ragweed, Ambrosia elatior); assay: Test A postemergence; settings: Ambrosia artemisiifolia, post-emergence, 240 h
How it was run: as §1

[19] = 125 g ai/ha, preemergence, approx. 10 d

COc1cccc([C@H]2CN(C)C(=O)[C@@H]2C(=O)Nc2cccc(F)c2F)c1F [Compound 1072]
100%: pest or weed control at 125 g/ha [3, 19] | pest or weed control at 125 g/ha [4, 19] | pest or weed control at 125 g/ha ([12]; 125 g ai/ha, postemergence, visual injury on 0 to 100 scale (0 no effect, 100 complete control), approx. 10 d, read-out: Barnyardgrass plant response rating)
15%: pest or weed control at 250 g/ha (rice (Oryra sativa))
0%: pest or weed control at 31 g/ha (Kochia (Kochia scoparia) [1]; 31 g ai/ha, Preemergence) | pest or weed control at 125 g/ha (Kochia (Kochia scoparia) [1]; [19]) | pest or weed control at 31 g/ha ([2]; 31 g ai/ha, Preemergence) | pest or weed control at 125 g/ha [2, 19] | pest or weed control at 31 g/ha ([5]; 31 g ai/ha, Preemergence) | pest or weed control at 125 g/ha [5, 19] | pest or weed control at 31 g/ha ([6]; 31 g ai/ha, Preemergence) | pest or weed control at 125 g/ha [6, 19] | pest or weed control at 250 g/ha [9] | pest or weed control at 125 g/ha (Kochia (Kochia scoparia) [10]; 125 g ai/ha, postemergence, visual injury on 0 to 100 scale (0 no effect, 100 complete control), approx. 10 d, read-out: Kochia plant response rating) | pest or weed control at 31 g/ha (Kochia (Kochia scoparia) [10]; Postemergence, 31 g ai/ha, visual injury after approx. 10 d, 0 to 100 scale, 0 no effect, 100 complete control, read-out: Plant response rating, Kochia) | plant injury at 125 g/ha (corn (Zea mays); 125 g ai/ha, postemergence, visual injury on 0 to 100 scale (0 no effect, 100 complete control), approx. 10 d, read-out: Corn plant response rating) | Corn plant response rating (crop injury, 0 = no effect, 100 = complete kill) at 31 g/ha (corn (Zea mays); Postemergence, 31 g ai/ha, visual injury after approx. 10 d, 0 to 100 scale, 0 no effect, 100 complete control) | pest or weed control at 31 g/ha ([11]; Postemergence, 31 g ai/ha, visual injury after approx. 10 d, 0 to 100 scale, 0 no effect, 100 complete control, read-out: Plant response rating, Ryegrass, Italian) | plant injury at 31 g/ha ([13]; Postemergence, 31 g ai/ha, visual injury after approx. 10 d, 0 to 100 scale, 0 no effect, 100 complete control, read-out: Plant response rating, Wheat) | pest or weed control at 125 g/ha ([15]; 125 g ai/ha, postemergence, visual injury on 0 to 100 scale (0 no effect, 100 complete control), approx. 10 d, read-out: Galium plant response rating) | pest or weed control at 31 g/ha ([15]; Postemergence, 31 g ai/ha, visual injury after approx. 10 d, 0 to 100 scale, 0 no effect, 100 complete control, read-out: Plant response rating, Galium) | pest or weed control at 31 g/ha ([16]; Postemergence, 31 g ai/ha, visual injury after approx. 10 d, 0 to 100 scale, 0 no effect, 100 complete control, read-out: Plant response rating, Blackgrass) | pest or weed control at 125 g/ha ([17]; 125 g ai/ha, postemergence, visual injury on 0 to 100 scale (0 no effect, 100 complete control), approx. 10 d, read-out: Pigweed plant response rating) | pest or weed control at 31 g/ha ([17]; Postemergence, 31 g ai/ha, visual injury after approx. 10 d, 0 to 100 scale, 0 no effect, 100 complete control, read-out: Plant response rating, Pigweed) | pest or weed control at 125 g/ha ([18]; 125 g ai/ha, postemergence, visual injury on 0 to 100 scale (0 no effect, 100 complete control), approx. 10 d, read-out: Ragweed plant response rating) | pest or weed control at 31 g/ha ([18]; Postemergence, 31 g ai/ha, visual injury after approx. 10 d, 0 to 100 scale, 0 no effect, 100 complete control, read-out: Plant response rating, Ragweed)
70%: pest or weed control at 250 g/ha [7]
30%: pest or weed control at 125 g/ha ([11]; 125 g ai/ha, postemergence, visual injury on 0 to 100 scale (0 no effect, 100 complete control), approx. 10 d, read-out: Ryegrass, Italian plant response rating)
20%: plant injury at 125 g/ha ([13]; 125 g ai/ha, postemergence, visual injury on 0 to 100 scale (0 no effect, 100 complete control), approx. 10 d, read-out: Wheat plant response rating) | pest or weed control at 125 g/ha ([16]; 125 g ai/ha, postemergence, visual injury on 0 to 100 scale (0 no effect, 100 complete control), approx. 10 d, read-out: Blackgrass plant response rating)
90%: pest or weed control at 31 g/ha ([3]; 31 g ai/ha, Preemergence) | pest or weed control at 31 g/ha ([4]; 31 g ai/ha, Preemergence) | pest or weed control at 31 g/ha ([12]; Postemergence, 31 g ai/ha, visual injury after approx. 10 d, 0 to 100 scale, 0 no effect, 100 complete control, read-out: Plant response rating, Barnyardgrass) | pest or weed control at 125 g/ha ([14]; 125 g ai/ha, postemergence, visual injury on 0 to 100 scale (0 no effect, 100 complete control), approx. 10 d, read-out: Foxtail, Giant plant response rating)
80%: pest or weed control at 250 g/ha [8] | pest or weed control at 31 g/ha ([14]; Postemergence, 31 g ai/ha, visual injury after approx. 10 d, 0 to 100 scale, 0 no effect, 100 complete control, read-out: Plant response rating, Foxtail, Giant)
